Test results reported in patent publication US20240041042A1, “1-(PYRIDYL)-5-AZINYLPYRAZOLE DERIVATIVES, AND THEIR USE FOR CONTROL OF UNDESIRED PLANT GROWTH” (Bayer Aktiengesellschaft, priority 2020, published 2024).
Read-outs that look alike come from different tables or passages of the source.

Experiments:
Type in all cases: in vivo
[1] = tested on: Abutilon theophrasti (ABUTH); experiment: Post-emergence herbicidal action against ABUTH; details: 320 g/ha, visual rating about 3 weeks after treatment vs untreated controls (100% = plants have died, 0% = like control plants)
Outline: (§1)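 Doses of 320 g/ha or lower, suffixes a, b and c marking different dosages, were applied post-emergence at the one-leaf stage in 600 l/ha water with 0.5% additive. Damage was assessed visually after about 3 weeks in the greenhouse.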

[2] = tested on: Amaranthus retroflexus (AMARE); experiment: Post-emergence herbicidal action against AMARE
Outline: as §1

[3] = tested on: Echinochloa crus-galli (ECHCG); experiment: Post-emergence herbicidal action against ECHCG
Outline: as §1

[4] = tested on: Matricaria inodora (MATIN); experiment: Post-emergence herbicidal action against MATIN; details: dosage 320 g/ha
Outline: as §1

[5] = tested on: Pharbitis purpurea (PHBPU); experiment: Post-emergence herbicidal action against PHBPU
Outline: as §1

[6] = tested on: Polygonum convolvulus (POLCO); experiment: Post-emergence herbicidal action against POLCO
Outline: as §1

[7] = tested on: Verconica persica (VERPE); experiment: Post-emergence herbicidal action against VERPE
Outline: as §1

Viola tricolor (VIOTR) [8] = experiment: Post-emergence herbicidal action against VIOTR
Outline: as §1

[9] = tested on: Triticum aestivum (TRZAS); details: crop plant compatibility, effect vs untreated controls
Outline: (§2)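 Percent effect on the crop was judged by eye against untreated controls, where 0% means like control and 100% means dead plants. Plants had been sprayed post-emergence at the one-leaf stage and then kept under optimum greenhouse conditions for about 3 weeks.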

[10] = tested on: Alopecurus myosuroides (ALOMY); experiment: Pre-emergence herbicidal action against ALOMY; details: scored visually after about 3 weeks, 100% = plants have died
Outline: (§3)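 Seeds sown in pots and covered with soil; WP or EC formulations sprayed onto the soil surface at 600 l/ha water with 0.5% additive, at 320 g/ha or lower. Greenhouse growth for about 3 weeks, then visual scoring as % effect against untreated controls (100% = plants dead).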

[11] = tested on: Amaranthus retroflexus (AMARE); experiment: Pre-emergence herbicidal action against AMARE; details: visual scoring after about 3 weeks vs untreated controls
Outline: as §3

Avena fatua (AVEFA) [12] = experiment: Pre-emergence herbicidal action against AVEFA; details: 320 g/ha, visual scoring after about 3 weeks vs untreated controls
Outline: as §3

[13] = tested on: Echinochloa crus-galli (ECHCG); experiment: Pre-emergence herbicidal action against ECHCG
Outline: as §3

[14] = tested on: Pharbitis purpurea (PHBPU); experiment: Pre-emergence herbicidal action against PHBPU; details: dosage 320 g/ha
Outline: as §3

[15] = tested on: Polygonum convolvulus (POLCO); experiment: Pre-emergence herbicidal action against POLCO
Outline: as §3

Setaria viridis (SETVI) [16] = experiment: Pre-emergence herbicidal action against SETVI
Outline: as §3

[17] = tested on: Verconica persica (VERPE); experiment: Pre-emergence herbicidal action against VERPE
Outline: as §3

Viola tricolor (VIOTR) [18] = experiment: Pre-emergence herbicidal action against VIOTR
Outline: as §3

Avena fatua (AVEFA) [19] = experiment: Post-emergence herbicidal action against AVEFA; details: visual rating about 3 weeks after treatment
Outline: as §1

Oryza sativa (ORYSA) = details: crop plant compatibility
Outline: as §2

Zea mays (ZEAMX) = details: for Post-emergence action against ZEAMX in %: crop plant compatibility, 80 g/ha, effect vs untreated controls
Outline: as §2

Lolium rigidum (LOLRI) = experiment: Pre-emergence herbicidal action against LOLRI
Outline: as §3

[20] = tested on: Matricaria inodora (MATIN); experiment: Pre-emergence herbicidal action against MATIN; details: dosage 320 g/ha
Outline: as §3

[21] = tested on: Alopecurus myosuroides (ALOMY); experiment: Post-emergence herbicidal action against ALOMY; details: 80 g/ha, visual rating about 3 weeks after treatment vs untreated controls (100% = plants have died, 0% = like control plants)
Outline: as §1

Setaria viridis (SETVI) [22] = experiment: Post-emergence herbicidal action against SETVI; details: dosage 320 g/ha
Outline: as §1

[23] = 320 g/ha, visual rating about 3 weeks after treatment
[24] = 80 g/ha, effect in comparison to untreated controls

Structure (SMILES) | Post-emergence action against ABUTH in % [1] | Post-emergence action against AMARE in % [2, 23] | Post-emergence action against ECHCG in % ([3]; dosage 320 g/ha) | Post-emergence action against PHBPU in % ([5]; dosage 320 g/ha) | Post-emergence action against POLCO in % ([6]; dosage 320 g/ha) | Post-emergence action against VERPE in % ([7]; 320 g/ha, VERPE) | Post-emergence action against VERPE in % ([7]; dosage 80 g/ha) | Post-emergence action against TRZAS in % ([9]; 20 g/ha) | Pre-emergence action against ALOMY ([10]; 320 g/ha) | Pre-emergence action against AMARE in % ([11]; 320 g/ha) | Pre-emergence action against AVEFA in % (Avena fatua (AVEFA) [12]) | Pre-emergence action against ECHCG in % ([13]; dosage 320 g/ha) | Pre-emergence action against PHBPU in % [14] | Pre-emergence action against POLCO in % ([15]; dosage 320 g/ha) | Pre-emergence action against SETVI in % (Setaria viridis (SETVI) [16]; dosage 320 g/ha) | Pre-emergence action against VERPE in % ([17]; dosage 80 g/ha) | Pre-emergence action against VERPE in % ([17]; dosage 320 g/ha) | Pre-emergence action against VIOTR in % (Viola tricolor (VIOTR) [18]; 320 g/ha, Viola tricolor) | Pre-emergence action against VIOTR in % (Viola tricolor (VIOTR) [18]; dosage 80 g/ha) | Post-emergence action against ORYSA in % (Oryza sativa (ORYSA); [24]) | other results
C=Cc1c(OCC(=O)OCC)nn(-c2ccccn2)c1-c1ccc(F)nc1 [Example I-273] | 80% | 80% | 90% | 90% | 80% | 90% | 80% | 0% |  |  |  |  |  |  |  |  |  |  |  |  | Post-emergence action against MATIN in % [4]: 80%; Post-emergence action against PHBPU in % ([5]; dosage 80 g/ha): 80%; Post-emergence action against VIOTR in % (Viola tricolor (VIOTR) [8]; 80 g/ha): 90%; Post-emergence action against VIOTR in % (Viola tricolor (VIOTR) [8]; 320 g/ha): 90%
O=C(O)COc1nn(-c2ncccc2C(F)(F)F)c(-c2cncc(F)c2)c1I [Example I-186] | 80% |  | 90% |  | 80% | 80% |  |  | 90% | 90% | 80% | 80% | 90% | 80% | 80% | 90% | 90% | 90% | 80% | 10% | Post-emergence action against AVEFA in % (Avena fatua (AVEFA) [19]; 320 g/ha): 80%; Post-emergence action against ECHCG in % ([3]; dosage 80 g/ha): 80%; Post-emergence action against ORYSA in % (Oryza sativa (ORYSA); 320 g/ha, effect in comparison to untreated controls): 20%; Post-emergence action against TRZAS in % ([9]; 80 g/ha): 10%; Post-emergence action against ZEAMX in % (Zea mays (ZEAMX)): 20%
CS(=O)(=O)NC(=O)COc1nn(-c2ncccc2F)c(-c2ccc(F)nc2)c1Br [Example I-44] |  |  |  |  |  |  | 80% | 20% | 100% | 90% | 90% | 100% |  | 90% | 100% |  | 80% | 100% | 100% |  | Pre-emergence action against ALOMY ([10]; 80 g/ha): 100%; Pre-emergence action against AMARE in % ([11]; 80 g/ha): 80%; Pre-emergence action against ECHCG in % ([13]; dosage 80 g/ha): 80%; Pre-emergence action against LOLRI in % (Lolium rigidum (LOLRI); dosage 80 g/ha): 80%; Pre-emergence action against LOLRI in % (Lolium rigidum (LOLRI); dosage 320 g/ha): 100%; Pre-emergence action against MATIN in % [20]: 90%; Pre-emergence action against POLCO in % ([15]; dosage 80 g/ha): 90%; Pre-emergence action against SETVI in % (Setaria viridis (SETVI) [16]; dosage 80 g/ha): 90%; Post-emergence action against ALOMY in % [21]: 80%; Post-emergence action against AMARE in % ([2]; 80 g/ha, visual rating about 3 weeks after treatment vs untreated controls (100% = plants have died, 0% = like control plants)): 80%; Post-emergence action against AVEFA in % (Avena fatua (AVEFA) [19]; 80 g/ha): 90%; Post-emergence action against POLCO in % ([6]; dosage 80 g/ha): 90%; Post-emergence action against ORYSA in % (Oryza sativa (ORYSA); 20 g/ha, effect vs untreated controls): 20%; Post-emergence action against ZEAMX in % (crop plant compatibility) (Zea mays (ZEAMX); 20 g/ha, ZEAMX, effect in comparison to untreated controls): 0%; Post-emergence action against ZEAMX in % (Zea mays (ZEAMX)): 10%
O=C(COc1nn(-c2ncccc2C(F)(F)F)c(-c2cncc(F)c2)c1Br)OCC1CCOC1 (racemic) [Example I-162] |  | 80% | 80% | 90% |  | 90% | 80% |  |  | 90% |  | 80% | 90% | 100% |  | 90% | 90% | 100% | 80% | 0% | Post-emergence action against SETVI in % (Setaria viridis (SETVI) [22]): 80%; Post-emergence action against TRZAS in % ([9]; 80 g/ha): 10%
